ChEMBL document CHEMBL3046848, “Synthesis and biological evaluation of novel series of thieno[2,3-d]pyrimidine derivatives as anticancer and antimicrobial agents” (2013)
≈ marks a conversion by molar mass, not a printed value.

Assays:
Type in all cases: functional
IGROV-1 = assay: Anticancer activity against Homo sapiens (human) IGROV1 cells after 48 hr by SRB assay; settings: IGROV-1, 48 h
UACC-62 = assay: Anticancer activity against Homo sapiens (human) UACC62 cells after 48 hr by SRB assay; settings: UACC-62, 48 h
SK-MEL-5 [1] = assay: Anticancer activity against Homo sapiens (human) SK-MEL-5 cells after 48 hr by SRB assay; settings: SK-MEL-5, 48 h
Malme-3M = assay: Anticancer activity against Homo sapiens (human) MALME-3M cells after 48 hr by SRB assay
SNB-19 = assay: Anticancer activity against Homo sapiens (human) SNB19 cells after 48 hr by SRB assay; settings: SNB-19, 48 h
SF-539 = assay: Anticancer activity against Homo sapiens (human) SF539 cells after 48 hr by SRB assay; settings: SF-539, 48 h
RPMI-8226 = assay: Growth inhibition of Homo sapiens (human) RPMI8226 cells at 10 uM after 48 hr by SRB assay; settings: RPMI-8226, 48 h, read-out: GI
HL-60(TB) = assay: Growth inhibition of Homo sapiens (human) HL-60(TB) cells at 10 uM after 48 hr by SRB assay; settings: HL-60, 48 h, read-out: GI
MDA-MB-435 = assay: Growth inhibition of Homo sapiens (human) MDA-MB-435 cells at 10 uM after 48 hr by SRB assay; settings: MDA-MB-435, 48 h, read-out: GI
MCF7 = assay: Growth inhibition of Homo sapiens (human) MCF7 cells at 10 uM after 48 hr by SRB assay; settings: MCF7, 48 h, read-out: GI
SW-620 = assay: Growth inhibition of Homo sapiens (human) SW620 cells at 10 uM after 48 hr by SRB assay; settings: SW-620, 48 h, read-out: GI
Staphylococcus aureus = assay: Antimicrobial activity against Staphylococcus aureus ATCC6538P assessed as diameter of growth inhibition zone at 1 mg/ml after 24 hr by agar cup diffusion method; settings: read-out: IZ
Hs-578T = assay: Anticancer activity against Homo sapiens (human) Hs 578T cells after 48 hr by SRB assay
NCI/ADR-RES = assay: Anticancer activity against Homo sapiens (human) NCI/ADR-RES cells after 48 hr by SRB assay
SN12C = assay: Anticancer activity against Homo sapiens (human) SN12C cells after 48 hr by SRB assay
CAKI-1 = assay: Anticancer activity against Homo sapiens (human) CAKI-1 cells after 48 hr by SRB assay; settings: CAKI-1, 48 h
HCC 2998 = assay: Growth inhibition of Homo sapiens (human) HCC2998 cells at 10 uM after 48 hr by SRB assay; settings: HCC 2998, 48 h, read-out: GI
NCI-H522 = assay: Growth inhibition of Homo sapiens (human) NCI-H522 cells at 10 uM after 48 hr by SRB assay; settings: NCI-H522, 48 h, read-out: GI
NCI-H460 = assay: Growth inhibition of Homo sapiens (human) NCI-H460 cells at 10 uM after 48 hr by SRB assay; settings: NCI-H460, 48 h, read-out: GI
NCI-H226 = assay: Growth inhibition of Homo sapiens (human) NCI-H226 cells at 10 uM after 48 hr by SRB assay; settings: NCI-H226, 48 h, read-out: GI
HT-29 = assay: Anticancer activity against Homo sapiens (human) HT-29 cells after 48 hr by SRB assay; settings: HT-29, 48 h
NCI-H322M = assay: Anticancer activity against Homo sapiens (human) NCI-H322M cells after 48 hr by SRB assay
HOP-62 = assay: Anticancer activity against Homo sapiens (human) HOP62 cells after 48 hr by SRB assay; settings: HOP-62, 48 h
SR = assay: Anticancer activity against Homo sapiens (human) SR cells after 48 hr by SRB assay
Candida albicans = assay: Antimicrobial activity against Candida albicans ATCC2091 assessed as growth inhibition after 48 hr by two-fold serial dilution method; settings: ATCC2091, 48 h
SK-OV-3 = assay: Anticancer activity against Homo sapiens (human) SKOV3 cells after 48 hr by SRB assay; settings: SK-OV-3, 48 h
OVCAR-8 = assay: Anticancer activity against Homo sapiens (human) OVCAR8 cells after 48 hr by SRB assay; settings: OVCAR-8, 48 h
OVCAR-5 = assay: Anticancer activity against Homo sapiens (human) OVCAR5 cells after 48 hr by SRB assay; settings: OVCAR-5, 48 h
U-251 = assay: Growth inhibition of Homo sapiens (human) U251 cells at 10 uM after 48 hr by SRB assay; settings: U-251, 48 h, read-out: GI
PC-3 = assay: Growth inhibition of Homo sapiens (human) PC3 cells at 10 uM after 48 hr by SRB assay; settings: PC-3, 48 h, read-out: GI
SK-MEL-5 [2] = assay: Growth inhibition of Homo sapiens (human) SK-MEL-5 cells at 10 uM after 48 hr by SRB assay; settings: SK-MEL-5, 48 h, read-out: GI
UO-31 = assay: Growth inhibition of Homo sapiens (human) UO31 cells at 10 uM after 48 hr by SRB assay; settings: UO-31, 48 h, read-out: GI
LOX IMVI = assay: Growth inhibition of Homo sapiens (human) LOXIMVI cells at 10 uM after 48 hr by SRB assay; settings: read-out: GI
[3] = read-out: LC50 (the source's name)

Cc1c(C(N)=O)sc2nc(C)n(/N=c3\scc(-c4ccccc4)n3Cc3ccccc3)c(=O)c12
GI50 (IGROV-1): 1.43 µM
TGI (IGROV-1): 6.31 µM
CC50 (IGROV-1; [3]): > 100 µM
GI50 (UACC-62): 4.26 µM
TGI (UACC-62): 83.2 µM
CC50 (UACC-62; [3]): > 100 µM
GI50 (SK-MEL-5 [1]): 1.81 µM
TGI (SK-MEL-5 [1]): 3.75 µM
CC50 (SK-MEL-5 [1]; [3]): 7.75 µM
GI50 (Malme-3M): 2.18 µM
TGI (Malme-3M): > 100 µM
CC50 (Malme-3M; [3]): > 100 µM
GI50 (SNB-19): 4.8 µM
TGI (SNB-19): > 100 µM
CC50 (SNB-19; [3]): > 100 µM
GI50 (SF-539): 4.02 µM
TGI (SF-539): > 100 µM
CC50 (SF-539; [3]): > 100 µM
inhibition of growth at 10 µM (RPMI-8226): 110%
inhibition of growth at 10 µM (HL-60(TB)): 136%
inhibition of growth at 10 µM (MDA-MB-435): 87.8%
inhibition of growth at 10 µM (MCF7): 82.7%
inhibition of growth at 10 µM (SW-620): 87.5%
zone of inhibition at 1000 µg/mL (Staphylococcus aureus): 10 mm
GI50 (Hs-578T): 3.85 µM
TGI (Hs-578T): > 100 µM
CC50 (Hs-578T; [3]): > 100 µM
GI50 (NCI/ADR-RES): 2.9 µM
TGI (NCI/ADR-RES): 29.2 µM
CC50 (NCI/ADR-RES; [3]): > 100 µM
GI50 (SN12C): 3.84 µM
TGI (SN12C): > 100 µM
CC50 (SN12C; [3]): > 100 µM
GI50 (CAKI-1): 3.35 µM
TGI (CAKI-1): > 100 µM
CC50 (CAKI-1; [3]): > 100 µM
inhibition of growth at 10 µM (HCC 2998): 42.9%
inhibition of growth at 10 µM (NCI-H522): 75.1%
inhibition of growth at 10 µM (NCI-H460): 92.5%
inhibition of growth at 10 µM (NCI-H226): 69.1%
GI50 (HT-29): 3.04 µM
TGI (HT-29): > 100 µM
CC50 (HT-29; [3]): > 100 µM
GI50 (NCI-H322M): 3.71 µM
TGI (NCI-H322M): > 100 µM
CC50 (NCI-H322M; [3]): > 100 µM
GI50 (HOP-62): 2.82 µM
TGI (HOP-62): 9.47 µM
CC50 (HOP-62; [3]): > 100 µM
GI50 (SR): 5.74 µM
TGI (SR): > 100 µM
CC50 (SR; [3]): > 100 µM
MIC (Candida albicans): 125 µg/mL (≈ 256 µM)
GI50 (SK-OV-3): 4.5 µM
TGI (SK-OV-3): > 100 µM
CC50 (SK-OV-3; [3]): > 100 µM
GI50 (OVCAR-8): 3.49 µM
TGI (OVCAR-8): > 100 µM
CC50 (OVCAR-8; [3]): > 100 µM
GI50 (OVCAR-5): 4.33 µM
TGI (OVCAR-5): > 100 µM
CC50 (OVCAR-5; [3]): > 100 µM
inhibition of growth at 10 µM (U-251): 92.2%
inhibition of growth at 10 µM (PC-3): 98%
inhibition of growth at 10 µM (SK-MEL-5 [2]): 92.6%
inhibition of growth at 10 µM (UO-31): 95.9%
inhibition of growth at 10 µM (LOX IMVI): 79.4%
